Data set [1] relates to skh-1 mice. The data set can be described thus: UVB-irradiated skin edema (skinfold thickness). The data set is classed as in vivo. To be noted: 180 mJ/cm^2 UVB. As to the method:
Mice (skh-1) were treated daily with 20 mg/kg i.p. bolus injections of compound D-58 from day −2 (i. e. 2 days prior to UVB exposure) until the termination of the experiment. Anesthetized mice received UVB radiations to a 2.0 cm^2 area on their dorsal surface. This area was painted either with the test compound (1.5 mg/cm^2) in drug receiving mice, or with vehicle in control mice 15 minutes before irradiation. The distance between UVB lamps and surface receiving irradiation was 20 cm. The final radiation dose received by skh-1 hairless mice was 180 mJ/cm^2 which is approximately four times higher than the minimal erythema dose (MED) (ref 29) in these mice. Skinfold thickness of the back of the mice was recorded prior to, and on each day after UVB exposure for five days with a digital thickness gauge (Mitutoyo Co., Plainfield, N.J.) which measures the skinfold thickness in a 0-10 mm range with an accuracy of 0.015 mm. […] For this purpose female, hairless, albino skh-1 mice were exposed to 180 mJ/cm^2 UVB light and their skinfold thickness, as a parameter of acute inflammation, was measured on days 1 through 5 following irradiation. […] The data points represent the mean±SEM values (n=5 mice). *p<0.05 and **p<0.001 compared to vehicle-treated UVB irradiated controls were determined by Student's t test.

Data set [2] has as its system HaCaT cells. Put plainly: PGE2 release from UVB-irradiated HaCaT cells. Format: cell-based, human. To be noted: 20 mJ/cm^2 UVB, 24 hours post irradiation; FIG. 5. The text has this:
A bank of 8-FSX24T12/HO/UVB lamps (National Biological Corporation, Twinsburg, Ohio) that emit light predominantly in the UVB range (280-320 nm) was used to irradiate the cell cultures. The performance of the UVB lamps was always confirmed before irradiation using a UVB meter (model-500C obtained from National Biological Corporation, Twinsburg, Ohio). The dose of UVB light used to irradiate cell cultures was 20 mJ/cm^2. Confluent HaCaT cells cultured in 24-well culture dishes were washed three times with serum-free DMEM containing 1% BSA and incubated with indicated concentrations of compound D-58 for 1 hour at 37° C. […] Compound D-58 was readministered after irradiation and the cells were incubated for another 24 hours at 37° C. The cell supernatants were collected and their PGE2 concentration was measured by ELISA. The protein contents of the cell pellets were determined using the Pierce BCA protein assay method.
One of the major arachidonic acid metabolites in UVB-irradiated epidermal cells is prostaglandin E2 (PGE2), which induces edema and erythema in skin (refs 34 and 35). PGE2 release can be detected as early as 6 hours and peaks between 24-48 hours following UVB exposure. […]
To summarize, confluent monolayers of the human epidermal cell line HaCaT were either irradiated with UVB (20 mJ/cm^2) or sham irradiated. […] The drug was readministered after UVB exposure. […]

In data set [3] the test system is RBL-2H3 cells. The data set can be described thus: Mast cell viability by trypan blue dye exclusion. The data set is classed as cell-based, rat. To be noted: 300 μM, 2 hour treatment at 37° C. The text has this:
The viability of compound D-58-treated mast cells ranged from 91 to 92%. […] Stimulation of RBL-2H3 mast cells using IgE/antigen as a stimulus induced the release of significant amounts of preformed granule-associated β-hexosaminidase (47.2±7.9% of total cellular content) as well as newly synthesized LTC4 (5.8±1.8 pg/10^6 cells).

Take `COc1ccc(CC(=O)c2c(O)cc(O)cc2O)cc1` [Compound D-58]: in data set [1] (20 mg/kg i.p. daily from day −2 plus 1.5 mg/cm^2 topical, FIG. 7), the “development of skin edema after UVB exposure” value is on record as “effectively inhibited”. Besides, the skinfold thickness entry in data set [1] (by 72 hours post irradiation) is “at baseline control levels”. Besides, in data set [2], the “PGE2 release from UVB irradiated cells” value is on record as “inhibited the PGE2 release”. The “effect on viability of RBL-2H3 cells” value in data set [3] is recorded as “did not affect the viability”.

The values are drawn from patent US6391921B1 (priority 2000, dated 2002).
